# Target: T1, GPR6 receptor expressed in CHO-K1 cells (Homo sapiens, UniProt P46095)
# T1 construct: expressed in transfected cells
# Assay: In vitro inhibition of cAMP (EC50), cell-based HTRF cAMP assay
# Conditions: inhibition of constitutive cAMP activity of GPR6 in CHO-K1 cells
# In short: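 Tetracycline-inducible CHO-K1 line, GPR6 expression induced 20 h with 2 μg/mL doxycycline. Compounds incubated 45 min at 37 °C in Ringer's buffer (pH 7.4) with 0.5% fatty acid free BSA and 300 μM IBMX. Constitutive cAMP read by Lance HTRF; EC50 from four-parameter logistic fit.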
# T1 sequence (P46095 whole entry): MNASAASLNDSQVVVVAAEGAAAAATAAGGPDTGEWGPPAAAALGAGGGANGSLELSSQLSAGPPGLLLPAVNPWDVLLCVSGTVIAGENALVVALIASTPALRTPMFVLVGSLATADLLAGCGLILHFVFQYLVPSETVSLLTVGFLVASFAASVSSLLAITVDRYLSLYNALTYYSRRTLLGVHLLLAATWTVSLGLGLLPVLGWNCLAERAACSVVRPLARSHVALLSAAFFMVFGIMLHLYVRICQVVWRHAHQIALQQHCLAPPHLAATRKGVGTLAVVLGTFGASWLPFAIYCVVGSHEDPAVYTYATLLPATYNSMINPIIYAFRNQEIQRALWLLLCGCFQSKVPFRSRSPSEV
row,SMILES,"pEC50, in vitro inhibition of cAMP"
1,"COc1ncc(F)cc1C(=O)Nc1ccc(C#N)nc1N1CCC(Oc2ccc(F)cc2F)CC1 [Example 255, N-(6-cyano-2-(4-(2,4-difluorophenoxy)piperidin-1-yl)pyridin-3-yl)-5-fluoro-2-methoxynicotinamide]",7.3
2,"COc1nn(C)cc1C(=O)Nc1cc(C#N)cnc1N1CCN(Cc2c(F)cc(Cl)cc2F)CC1 [Example 174, N-(2-(4-(4-chloro-2,6-difluorobenzyl)piperazin-1-yl)-5-cyanopyridin-3-yl)-3-methoxy-1-methyl-1H-pyrazole-4-carboxamide]",7.1
3,"Cc1cnc(C(=O)Nc2cc(C#N)ccc2N2CCC(Oc3ccc(F)cc3F)CC2)cn1 [Example 123, N-(5-cyano-2-(4-(2,4-difluorophenoxy)piperidin-1-yl)phenyl)-5-methylpyrazine-2-carboxamide]",6.5
4,Cn1c2c(cc(C(=O)Nc3cc(C#N)ccc3N3CCC(Oc4ccc(F)cc4F)CC3)c1=O)CCCC2 [Example 185],6.4
5,"Cc1cccnc1C(=O)Nc1cc(C#N)cnc1N1CCC(Oc2ccc(F)cc2F)CC1 [Example 59, N-(5-cyano-2-(4-(2,4-difluorophenoxy)piperidin-1-yl)pyridin-3-yl)-3-methylpicolinamide]",7.3
6,"N#Cc1ccc(N2CCC(Oc3ccc(F)cc3F)CC2)c(NC(=O)c2ncccc2F)c1 [Example 108, N-(5-cyano-2-(4-(2,4-difluorophenoxy)piperidin-1-yl)phenyl)-3-fluoropicolinamide]",7.0
7,"CCn1ncc(C(=O)Nc2cc(C#N)cnc2N2CCC(Oc3ccc(F)cc3F)CC2)c1OC [Example 120, N-(5-cyano-2-(4-(2,4-difluorophenoxy)piperidin-1-yl)pyridin-3-yl)-1-ethyl-5-methoxy-1H-pyrazole-4-carboxamide]",7.4
8,"COc1c(C)cccc1C(=O)Nc1cc(C#N)ccc1N1CCC(Oc2ccc(F)cc2F)CC1 [Example 232, N-(5-cyano-2-(4-(2,4-difluorophenoxy)piperidin-1-yl)phenyl)-2-methoxy-3-methylbenzamide]",6.4
9,"COc1ccc(Cl)cc1C(=O)Nc1cc(C#N)ccc1N1CCC(Oc2ccc(F)cc2F)CC1 [Example 211, 5-chloro-N-(5-cyano-2-(4-(2,4-difluorophenoxy)piperidin-1-yl)phenyl)-2-methoxybenzamide]",6.7
10,"COc1nn(C)cc1C(=O)Nc1cc(C#N)cnc1N1CCN(Cc2cccc(F)c2OC)CC1 [Example 160, N-(5-cyano-2-(4-(3-fluoro-2-methoxybenzyl)piperazin-1-yl)pyridin-3-yl)-3-methoxy-1-methyl-1H-pyrazole-4-carboxamide]",6.5
11,"Cc1sc2ncc(C(=O)Nc3cc(C#N)ccc3N3CCC(Oc4ccc(F)cc4F)CC3)c(=O)n2c1C [Example 198, N-(5-cyano-2-(4-(2,4-difluorophenoxy)piperidin-1-yl)phenyl)-2,3-dimethyl-5-oxo-5H-thiazolo[3,2-a]pyrimidine-6-carboxamide]",6.4
12,"Cc1nccc(C(=O)Nc2cc(C#N)ccc2N2CCC(Oc3ccc(F)cc3F)CC2)n1 [Example 141, N-(5-cyano-2-(4-(2,4-difluorophenoxy)piperidin-1-yl)phenyl)-2-methylpyrimidine-4-carboxamide]",7.2
13,"N#Cc1ccc(N2CCC(Oc3ccc(F)cc3F)CC2)c(NC(=O)c2cccn(Cc3ccccn3)c2=O)c1 [Example 203, N-(5-cyano-2-(4-(2,4-difluorophenoxy)piperidin-1-yl)phenyl)-2-oxo-1-(pyridin-2-ylmethyl)-1,2-dihydropyridine-3-carboxamide]",5.6
14,"COc1nn(C)cc1C(=O)Nc1cc(C#N)cnc1N1CCN(Cc2ccccc2OC(F)(F)F)CC1 [Example 167, N-(5-cyano-2-(4-(2-(trifluoromethoxy)benzyl)piperazin-1-yl)pyridin-3-yl)-3-methoxy-1-methyl-1H-pyrazole-4-carboxamide]",6.5
15,"COc1ncccc1C(=O)Nc1cc(C#N)ccc1N1CCC(C(=O)c2ccccc2)CC1 [Example 70, N-(2-(4-benzoylpiperidin-1-yl)-5-cyanophenyl)-2-methoxynicotinamide]",6.4
16,"Cn1ccc(C(=O)Nc2cc(C#N)ccc2N2CCC(Oc3ccc(F)cc3F)CC2)n1 [Example 42, N-(5-cyano-2-(4-(2,4-difluorophenoxy)piperidin-1-yl)phenyl)-1-methyl-1H-pyrazole-3-carboxamide]",6.9
17,"COc1c(C(=O)Nc2cc(C#N)ccc2N2CCC(Oc3ccc(F)cc3F)CC2)ccc(F)c1F [Example 233, N-(5-cyano-2-(4-(2,4-difluorophenoxy)piperidin-1-yl)phenyl)-3,4-difluoro-2-methoxybenzamide]",6.4
18,"COc1ncccc1C(=O)Nc1cc(C#N)ccc1N1CCN(Cc2cccc(C#N)c2)CC1 [Example 248, N-(5-cyano-2-(4-(3-cyanobenzyl)piperazin-1-yl)phenyl)-2-methoxynicotinamide]",6.9
19,"Cn1cccc(C(=O)Nc2cc(C#N)ccc2N2CCC(C(F)(F)c3ccc(F)cc3F)CC2)c1=O [Example 86, N-(5-cyano-2-(4-((2,4-difluorophenyl)difluoromethyl)piperidin-1-yl)phenyl)-1-methyl-2-oxo-1,2-dihydropyridine-3-carboxamide]",6.8
20,"COc1ncccc1C(=O)Nc1cc(C#N)ccc1N1CCN(Cc2cccc(F)c2F)CC1 [Example 243, N-(5-cyano-2-(4-(2,3-difluorobenzyl)piperazin-1-yl)phenyl)-2-methoxynicotinamide]",6.5
21,"Cc1cc(C)n(C)c(=O)c1C(=O)Nc1cc(C#N)ccc1N1CCC(Oc2ccc(F)cc2F)CC1 [Example 176, N-(5-cyano-2-(4-(2,4-difluorophenoxy)piperidin-1-yl)phenyl)-1,4,6-trimethyl-2-oxo-1,2-dihydropyridine-3-carboxamide]",6.5
22,COc1ncccc1C(=O)Nc1cc(C#N)ccc1N1CCN(Cc2ccc(F)cn2)CC1 [Example 244],6.3
23,COc1ncccc1C(=O)Nc1cc(C(=O)N(C)C)c(C#N)cc1N1CCC(Oc2ccc(F)cc2F)CC1 [Example 272],7.4
24,"COc1cc(F)ccc1CN1CCN(c2ncc(C#N)cc2NC(=O)c2cn(C)nc2OC)CC1 [Example 155, N-(5-cyano-2-(4-(4-fluoro-2-methoxybenzyl)piperazin-1-yl)pyridin-3-yl)-3-methoxy-1-methyl-1H-pyrazole-4-carboxamide]",6.3
25,"Cn1cccc(C(=O)Nc2cc(C#N)ccc2N2CCC(Oc3cc(F)ccc3F)CC2)c1=O [Example 15, N-(5-cyano-2-(4-(2,5-difluorophenoxy)piperidin-1-yl)phenyl)-1-methyl-2-oxo-1,2-dihydropyridine-3-carboxamide]",7.1
26,"COc1ncc(C)cc1C(=O)Nc1cc(C(=O)N(C)C)cnc1N1CCC(Oc2ccc(F)cc2F)CC1 [Example 147, 6-(4-(2,4-difluorophenoxy)piperidin-1-yl)-5-(2-methoxy-5-methylnicotinamido)-N,N-dimethylnicotinamide]",6.9

# From patent publication US11426397B2, “Piperidinyl- and piperazinyl-substituted heteroaromatic carboxamides as modulators of GPR6” (TAKEDA PHARMACEUTICAL COMPANY LIMITED, priority 2017, dated 2022)
